Each structure is given as a SMILES string.

Data set [1] in a line: DRV plasma trough concentration ([DRV]plasma) by UPLC-DAD in HIV-1 infected patients, by CYP3A5 genotype-based expression status. Type of data set: in vivo, human. The text has this:
After a clinical assessment and in addition to the samples routinely collected for the clinical follow-up (viral load, CD4 cell count), two more blood samples were drawn immediately before drug intake, with the highest timing precision conceivable given the ambulatory context of the study recruitment. […] In order to obtain a post-intake delay as close as possible to the trough sampling time, each patient was personally contacted by phone a few days before the study visit to ensure not taking the medication prior to blood sampling.
Plasma was then collected and stored at -20°C until the day of quantification.
Genotype and allele frequencies were calculated and deviations from Hardy-Weinberg equilibrium (HWE) were evaluated using exact tests.
The patients were also classified into CYP3A5 expressors (CYP3A5*1 allele carriers) and CYP3A5 non-expressors (CYP3A5*3 homozygous).

The conditions of data set [2]: cited from earlier work.
The conditions of data set [3]: addition of ETR 200mg bid to DRV/r 600/100mg bid; cited from earlier work.
Data set [4] relates to HIV. Set-up: method as in PMID 17617270, PMID 17617271. As to conditions: treatment-experienced patients, with optimized background regimen including DRV/r 600/100 mg BID; cited from earlier work.

As to `CC(C)CN(C[C@@H](O)[C@H](Cc1ccccc1)NC(=O)O[C@H]1CO[C@H]2OCC[C@H]21)S(=O)(=O)c1ccc(N)cc1` [DRV, Darunavir], the “decrease of plasma drug concentration by the drug-drug interaction” value in data set [1] (CYP3A5 expressors versus non-expressors, DRV with ETR) is reported as “more than 55%”. Also, in data set [1] (overall, all 135 patients), the “mean [DRV]plasma (geometric mean trough concentration)” value worked out at 1805 ng/mL. In addition, the “[DRV]plasma of a single patient” value in data set [1] (person, CYP3A5 expressor, DRV/r and ETR, detectable viral load) turned out to be 652 ng/mL. Also, the “DRV plasma concentration (geometric mean)” value in data set [1] (subgroup DRV/r 600/100mg BID plus ETR n = 13, CYP3A5 expressors n = 5) is “• 1486ng/ml • (CI95%:725–3044) • n = 5”; in data set [1] (subgroup DRV/r 600/100mg BID plus ETR n = 13, CYP3A5 non-expressors n = 8) it was “• 3141ng/ml • (CI95%: 2042–4831) • n = 8”; in data set [1] (subgroup DRV/r 600/100mg BID, CYP3A5 expressors n = 19) it was “• 2411 • (CI95%: 1895–3067) • n = 19 ng/ml”; in data set [1] (subgroup DRV/r 600/100mg BID, CYP3A5 non-expressors n = 23) it was “• 2430 • (CI95%: 1817–3249) • n = 23 ng/ml”; in data set [1] (subgroup DRV/r 800/100mg QD, CYP3A5 expressors n = 41) it was “• 1693ng/ml • (CI95%:1314–2182) • n = 41”; in data set [1] (subgroup DRV/r 800/100mg QD, CYP3A5 non-expressors n = 52) it was “• 1498ng/ml • (CI95%: 1227–1828) • n = 52”. Moreover, the “DRV PK parameters (in particular Ctrough and Cmax)” value in data set [2] (DRV/r 600/100mg bid with ETR 100mg or 200mg bid, healthy volunteers) is “unchanged”. Further, the “increase of DRV AUC” value in data set [3] is listed as 14%.
Consider `Cc1cc(C#N)cc(C)c1Oc1nc(Nc2ccc(C#N)cc2)nc(N)c1Br` [ETR, Etravirine], for which the “decrease of ETR exposure” value in data set [2] (DRV/r with ETR 100mg twice daily compared to ETR alone) is given as 37%. In data set [4], the “virological efficacy, immunological recovery and clinical progression versus placebo” value is on record as “superiority”.

These data come from publication PMC5082792 (PLoS ONE, 2016).
